Drawing on PubChem BioAssay (NCI), this text covers TGI and GI50 for ten compounds.

Among the test systems are NCI/ADR-RES ovarian; SW-620 colon; SK-MEL-28 melanoma; SF-539 CNS; OVCAR-4 ovarian; SK-MEL-2 melanoma; NCI-H460 lung; UACC-257 melanoma; NCI-H23 lung; HT29 colon.
Test in all cases: NCI anticancer screen, dose series, 48 h

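Dose response: 5 concentrations. Exposure: 48 h. Format: 96-well plates. Endpoint: linear interpolation; highest concentration if not reached. The concentration for 50% growth inhibition is given as GI50. Definition used: TGI = concentration required for complete inhibition of growth.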 Where only a bound is given, the exact number is not on record here.

On to `C=Cn1c([N+](=O)[O-])cnc1/C=C/c1ccc(C(=O)OCCN2CCOCC2)cc1`, for which the TGI with NCI/ADR-RES ovarian, in the experiment with SW-620 colon, in the experiment on SK-MEL-28 melanoma, with SF-539 CNS, with OVCAR-4 ovarian and in the experiment on SK-MEL-2 melanoma was greater than 100 µM in each case. In addition, the TGI with NCI-H460 lung, in the experiment with UACC-257 melanoma, in the experiment on NCI-H23 lung and in the experiment on HT29 colon was greater than 100 µM in each case.

`CCCCCCNCc1cc(C(C)(C)C)cc(CNCCCCCC)c1O`: the GI50 is 1.75 µM in the experiment on NCI/ADR-RES ovarian; 1.66 µM in the experiment with SW-620 colon; 1.83 µM in the experiment with SK-MEL-28 melanoma; 1.64 µM in the experiment on SF-539 CNS; 1.85 µM with OVCAR-4 ovarian; 1.98 µM with SK-MEL-2 melanoma. Further, the GI50 was 1.81 µM in the experiment on NCI-H460 lung, 1.67 µM with UACC-257 melanoma, 1.71 µM with NCI-H23 lung and 1.75 µM in the experiment on HT29 colon. Further, the TGI worked out at 3.24 µM in the experiment on NCI/ADR-RES ovarian; 3.1 µM with SW-620 colon; 3.27 µM with SK-MEL-28 melanoma; 3.09 µM with SF-539 CNS; 3.47 µM in the experiment with OVCAR-4 ovarian; 3.52 µM with SK-MEL-2 melanoma. In addition, the TGI in the experiment with NCI-H460 lung came out at 3.34 µM; in the experiment on UACC-257 melanoma, 3.13 µM; with NCI-H23 lung, 3.29 µM; with HT29 colon it was 3.24 µM.

Turning to `COC(=O)c1cc(OC)c(OC)c(OC)c1-c1cc2c(cc1C=O)OCO2`, the TGI with NCI/ADR-RES ovarian, in the experiment on SW-620 colon, in the experiment on SK-MEL-28 melanoma, with SF-539 CNS, with OVCAR-4 ovarian and with SK-MEL-2 melanoma was greater than 10 µM in each case. The TGI with NCI-H460 lung, in the experiment on UACC-257 melanoma, in the experiment on NCI-H23 lung and in the experiment with HT29 colon was greater than 10 µM in each case.

Take `Cc1cc(Cl)ccc1C(=O)c1ccc2ccccc2c1C(=O)O`: the TGI in the experiment with NCI/ADR-RES ovarian, with SW-620 colon, in the experiment with SK-MEL-28 melanoma, in the experiment on SF-539 CNS, in the experiment with OVCAR-4 ovarian and in the experiment on SK-MEL-2 melanoma was greater than 100 µM throughout. Besides, the TGI in the experiment with NCI-H460 lung, in the experiment on UACC-257 melanoma, in the experiment on NCI-H23 lung and in the experiment on HT29 colon was greater than 100 µM throughout.

`Cc1[nH]c2cc(F)ccc2c1-c1nc2c3cccnc3c3ncccc3c2[nH]1`: the GI50 with NCI/ADR-RES ovarian was 0.55 µM; in the experiment on SW-620 colon, 0.282 µM; in the experiment on SK-MEL-28 melanoma, 0.239 µM; in the experiment with SF-539 CNS it was 0.287 µM; in the experiment with OVCAR-4 ovarian, 0.0438 µM; in the experiment on SK-MEL-2 melanoma, 0.504 µM. The GI50 is 0.322 µM in the experiment with NCI-H460 lung, 0.228 µM in the experiment on UACC-257 melanoma, 0.343 µM in the experiment with NCI-H23 lung and 0.436 µM in the experiment on HT29 colon. Also, the TGI in the experiment on NCI/ADR-RES ovarian was 5.37 µM; with SW-620 colon it was 1.84 µM; in the experiment with SK-MEL-28 melanoma, 1.72 µM; in the experiment on SF-539 CNS, 1.29 µM; with OVCAR-4 ovarian, 1.23 µM; with SK-MEL-2 melanoma, 1.75 µM. Also, the TGI was 1.03 µM in the experiment on NCI-H460 lung, 0.833 µM in the experiment with UACC-257 melanoma, 1.89 µM in the experiment with NCI-H23 lung and 1.66 µM in the experiment with HT29 colon.

Consider `CN(C)c1cccc(F)c1C(=O)NC(=O)Nc1ccc(Cl)cc1`, for which the TGI in the experiment with NCI/ADR-RES ovarian was greater than 44.4 µM; with SW-620 colon, greater than 100 µM; in the experiment on SK-MEL-28 melanoma, greater than 100 µM; with SF-539 CNS it was greater than 100 µM; in the experiment with OVCAR-4 ovarian, greater than 100 µM; in the experiment with SK-MEL-2 melanoma it was greater than 67.9 µM. The TGI in the experiment with NCI-H460 lung was greater than 100 µM; in the experiment with UACC-257 melanoma it was greater than 100 µM; in the experiment with NCI-H23 lung it was greater than 100 µM; in the experiment with HT29 colon, greater than 23.2 µM.

Regarding `Cc1ccc(-n2nnnc2-c2cnc(N3CCOCC3)nc2-c2cccc(C(F)(F)F)c2)cc1`, the GI50 was 0.825 µM with NCI/ADR-RES ovarian; 1.93 µM in the experiment on SW-620 colon; 14.4 µM in the experiment on SK-MEL-28 melanoma; 1.16 µM with SF-539 CNS; greater than 10.8 µM in the experiment with SK-MEL-2 melanoma; 2 µM in the experiment with NCI-H460 lung. In addition, the GI50 in the experiment with UACC-257 melanoma is 4.88 µM; in the experiment with NCI-H23 lung, 1.36 µM; with HT29 colon, 1.53 µM. Besides, the TGI in the experiment on NCI/ADR-RES ovarian is 2.36 µM; in the experiment on SW-620 colon it was greater than 25.1 µM; in the experiment with SK-MEL-28 melanoma it was greater than 50 µM; in the experiment on SF-539 CNS, 2.72 µM; with SK-MEL-2 melanoma it was greater than 50 µM; with NCI-H460 lung it was greater than 22.4 µM. Moreover, the TGI with UACC-257 melanoma is greater than 30.5 µM; in the experiment on NCI-H23 lung it was 4.11 µM; in the experiment with HT29 colon, greater than 18.4 µM.

With `CCCCNc1ccc(Nc2ccccc2)cc1`, the GI50 is 21.5 µM in the experiment with NCI/ADR-RES ovarian; 5.06 µM in the experiment on SW-620 colon; 10.4 µM in the experiment on SK-MEL-28 melanoma; 11.8 µM in the experiment on SF-539 CNS; 4.35 µM in the experiment with OVCAR-4 ovarian; 4.61 µM in the experiment on NCI-H460 lung. Moreover, the GI50 in the experiment with NCI-H23 lung was 3.15 µM; in the experiment on HT29 colon it was 4.37 µM. The TGI with NCI/ADR-RES ovarian is greater than 100 µM; in the experiment with SW-620 colon, greater than 100 µM; in the experiment on SK-MEL-28 melanoma it was 60.2 µM; in the experiment with SF-539 CNS, 57.3 µM; in the experiment on OVCAR-4 ovarian it was greater than 100 µM; with NCI-H460 lung it was 43 µM. Moreover, the TGI with NCI-H23 lung turned out to be 43 µM; with HT29 colon, 25.1 µM.

Regarding `CCC(C)C(=O)OCC(=O)c1ccc(-c2ccccc2)cc1` (stereo unspecified), the TGI in the experiment on NCI/ADR-RES ovarian, in the experiment with SW-620 colon, in the experiment on SK-MEL-28 melanoma, in the experiment with SF-539 CNS, in the experiment on SK-MEL-2 melanoma and in the experiment with NCI-H460 lung was greater than 100 µM throughout. For the same compound, the TGI in the experiment with UACC-257 melanoma is 87.4 µM; in the experiment on NCI-H23 lung, greater than 100 µM; in the experiment with HT29 colon, greater than 100 µM.

On to `COc1ccc(C(=O)c2sc3nc(-c4cccs4)ccc3c2N)cc1OC`, for which the GI50 in the experiment on NCI/ADR-RES ovarian was 3.61 µM; with SW-620 colon, 5.07 µM; in the experiment on SK-MEL-28 melanoma it was 4.98 µM; in the experiment with SF-539 CNS it was 5.32 µM; in the experiment with OVCAR-4 ovarian, 6.75 µM; in the experiment on SK-MEL-2 melanoma it was 3.29 µM. Moreover, the GI50 in the experiment on NCI-H460 lung was 3.88 µM; with UACC-257 melanoma, 8.51 µM; in the experiment on HT29 colon, 3.65 µM. The TGI is greater than 100 µM with NCI/ADR-RES ovarian; greater than 100 µM in the experiment with SW-620 colon; 70.4 µM with SK-MEL-28 melanoma; greater than 100 µM with SF-539 CNS; greater than 100 µM in the experiment on OVCAR-4 ovarian; 19.2 µM with SK-MEL-2 melanoma. Also, the figures for the TGI in the experiment on NCI-H460 lung, with UACC-257 melanoma and in the experiment with HT29 colon were greater than 100 µM, greater than 100 µM and 17.4 µM, respectively.
